Numbers after ± are expanded uncertainties.
Experiment: xn = mol fraction of the nth substance listed
Conditions: 323.15 K, Fluid (supercritical or subcritical phases)

CC(C)=O [acetone] + O=C=O
Conditions	mass density [kg/m3]
9680 kPa, x2 = 0.952	588 ± 4
9710 kPa, x2 = 0.902	707 ± 4
9750 kPa, x2 = 0.933	656 ± 4
9750 kPa, x2 = 0.952	594 ± 4
9840 kPa, x2 = 0.948	625 ± 4
9850 kPa, x2 = 0.952	603 ± 4
9870 kPa, x2 = 0.902	711 ± 4
9900 kPa, x2 = 0.811	790 ± 5
9900 kPa, x2 = 0.882	743 ± 5
9900 kPa, x2 = 0.933	664 ± 4
9940 kPa, x2 = 0.952	611 ± 4
9960 kPa, x2 = 0.772	803 ± 5
10020 kPa, x2 = 0.902	715 ± 4
10030 kPa, x2 = 0.948	638 ± 4
10050 kPa, x2 = 0.933	669 ± 4
10100 kPa, x2 = 0.952	623 ± 4
10160 kPa, x2 = 0.902	719 ± 4
10220 kPa, x2 = 0.933	678 ± 4
10290 kPa, x2 = 0.882	748 ± 5
10290 kPa, x2 = 0.948	651 ± 4
10320 kPa, x2 = 0.952	636 ± 4
10360 kPa, x2 = 0.902	722 ± 5
10420 kPa, x2 = 0.933	684 ± 4
10440 kPa, x2 = 0.576	818 ± 5
10490 kPa, x2 = 0.811	796 ± 5
10540 kPa, x2 = 0.772	807 ± 5
10570 kPa, x2 = 0.902	727 ± 5
10590 kPa, x2 = 0.952	649 ± 4
10600 kPa, x2 = 0.948	666 ± 4
10630 kPa, x2 = 0.882	754 ± 5
10640 kPa, x2 = 0.933	693 ± 4
10780 kPa, x2 = 0.902	733 ± 5
10800 kPa, x2 = 0.186	785 ± 5
10880 kPa, x2 = 0.933	699 ± 4
10920 kPa, x2 = 0.952	663 ± 4
10950 kPa, x2 = 0.882	761 ± 5
10980 kPa, x2 = 0.948	679 ± 4
10990 kPa, x2 = 0.811	801 ± 5
11000 kPa, x2 = 0.902	736 ± 5
11060 kPa, x2 = 0.772	811 ± 5
11160 kPa, x2 = 0.933	707 ± 4
11260 kPa, x2 = 0.902	740 ± 5
11280 kPa, x2 = 0.952	678 ± 4
11440 kPa, x2 = 0.882	764 ± 5
11460 kPa, x2 = 0.933	714 ± 4
11480 kPa, x2 = 0.811	805 ± 5
11480 kPa, x2 = 0.948	696 ± 4
11500 kPa, x2 = 0.902	744 ± 5
11640 kPa, x2 = 0.383	806 ± 5
11760 kPa, x2 = 0.772	815 ± 5
11760 kPa, x2 = 0.902	751 ± 5
11780 kPa, x2 = 0.952	694 ± 4
11800 kPa, x2 = 0.933	724 ± 5
11870 kPa, x2 = 0.576	825 ± 5
11870 kPa, x2 = 0.882	769 ± 5

Source: the NIST ThermoML archive (doi:10.1021/je034087q)
